The test system of this assay is Jurkat NF-kB luciferase, PMA/ionomycin-induced, luminescence 16 h. Kind of assay: inhibitors of PMA/ionomycin-driven NF-kB luciferase in Jurkat – cell-based, luminescence, set 2, B-cell antigen receptor NF-kB inhibitors, SAR follow-up (AID 504515).

Structures are written as SMILES. Active and inactive are the calls of the source.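 The calls were made as follows: active = mean IC50 below 800 nM; inactive = the rest.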

By IC50 is commonly meant the concentration that inhibits the measured activity by half. Turning to `CCCOc1ccc(-c2nc(CSCC(=O)NCc3ccco3)c(C)o2)cc1`, the IC50 was > 800 nM (inactive).
In the case of `CCCOc1ccc(-c2nc(CSCC(=O)O)c(C)o2)cc1` it was 30 nM; in that of `CCCOc1ccc(-c2nc(CSCC(=O)NC3CC3)c(C)o2)cc1`, > 800 nM (inactive).
In the case of `CCCCc1ccc(-c2noc(CCC(=O)NCC)n2)cc1` it was > 800 nM (inactive); in that of `CCOc1ccc(-c2nc(CSCC(N)=O)c(C)o2)cc1`, > 800 nM (inactive).
In the case of `CC(C)c1ccc(-c2noc(CCC(=O)NC3CC3)n2)cc1` it was > 800 nM (inactive); in that of `C#CCNC(=O)CSCc1nc(-c2ccc(OCC)cc2)oc1C`, > 800 nM (inactive).
Turning to `Cc1oc(-c2ccc(OC(F)(F)F)cc2)nc1CSCC(=O)O`, the IC50 was 290 nM.
In the case of `CCCCc1ccc(-c2noc(CCC(=O)NC)n2)cc1` it was > 800 nM (inactive); in that of `CCCCOc1ccc(-c2nc(CSCC(=O)O)c(C)o2)cc1`, 70 nM; in that of `CCOc1ccc(-c2nc(CSCC(=O)O)c(C)o2)cc1`, 30 nM.
